Columns and labels:
Format in all cases: cell-based
[1] = tested on: human peripheric T lymphocytes; test: DNA synthesis of human T lymphocytes (3[H]-thymidine incorporation); settings: 72 h incubation
Experimental: (§1) The T cells were incubated for 72 h in the presence of said inhibitors, and the DNA synthesis was determined subsequently by a measurement of the ^3[H]-thymidine incorporation, as described by Reinhold et al. (Reinhold D. et al.: Inhibitors of dipeptidyl peptidase IV induce secretion of transforming growth factor β1 in PWM-stimulated PBMNC and T cells; Immunology 1997, 91: 354-360).
(§2) FIG. 1: Synergistic and dose-dependent effect of inhibitors of DP IV (I49) and of aminopeptidase N (actinonine) on the DNA synthesis of human T lymphocytes. Human peripheric T cells were incubated for three days with the above-indicated concentrations of the inhibitors. Subsequently, ^3[H]-methyl thymidine was added to the culture medium, and after further 6 hours, the ^3[H]-thymidine amount incorporated into the DNA was measured.
as §2, with “3:” for “1:”, “prolyl oligopeptidase (Boc-Ala-Thia)” for “aminopeptidase N (actinonine)”, “human peripheric” for “human”, “Human” for “Human peripheric”
FIG. 5: Synergistic and dose-dependent effect of inhibitors of DP IV (I49) and of angiotensin-converting enzyme (captopril) on the DNA synthesis of human peripheric T lymphocytes.
Human T cells were incubated for three days with the above-indicated concentrations of the inhibitors. Subsequently, ^3[H]-methyl thymidine was added to the culture medium, and after further 6 hours, the ^3[H]-thymidine amount incorporated into the DNA was measured.

KARPAS-299 cells = test: Proliferation of human T cell line KARPAS-299 (WST-1 Cell-Proliferation Assay); settings: single and simultaneous administration of I49 and APN inhibitors actinonine and probestine; 72 h; Example 8, FIG. 8
Experimental: (§3) FIG. 8: The KARPAS-299-cells were incubated for a time period of 72 hours without (control) and with the above-indicated inhibitors singly or in combination. Subsequently, there was carried out a determination of the number of metabolically active cells by using the commercially available WST-1 Cell-Proliferation Assay (Takara Inc.) in accordance with the proposals of the manufacturer.

[2] = tested on: human HaCaT keratinocytes; test: DNA synthesis of human HaCaT keratinocytes (3[H]-thymidine incorporation); settings: simultaneous administration of DP IV inhibitor I49 and APN inhibitor actinonine; 48 h; Example 13, FIG. 14
Experimental: HaCaT cells were incubated for 48 hours in presence of the above-mentioned inhibitors, and the DNA synthesis was subsequently determined by a measurement of ^3[H]-thymidine-incorporation, as described by Reinhold et al. (Reinhold D et al.: Inhibitors of dipeptidyl peptidase IV induce secretion of transforming growth factor β1 in PWM-stimulated PBMNC and T cells. Immunology 1997; 91; 354-360).
FIG. 14: Synergistic and dose-dependant effect of inhibitors of DP IV (I49) and of aminopeptidase N (actinonine) on the DNA synthesis of human HaCaT keratinocytes. The cells were incubated for 48 hours with the above-indicated concentrations of inhibitors. Subsequently, ^3[H]-methyl thymidine was added to the culture medium, and after further 6 hours, the amount of ^3[H]-thymidine incorporated into the DNA was measured.

[3] = tested on: activated human peripheric T cells; test: Proliferation of activated human peripheric T cells (WST-1 Cell-Proliferation Assay); settings: single and simultaneous administration of I49 and APN inhibitors actinonine and probestine; activation by phytohemagglutinine and phorbol-12-myristate-13-acetate; 72 h; Example 9, FIG. 9
Experimental: FIG. 9: The T cells with the exception of the untreated control, were activated by an addition of phytohemagglutinine and phorbol-12-myristate-13-acetate to the culture medium and were incubated for a time of 72 hours in the presence of the above inhibitors singly or in combination. Subsequently, there was carried out a determination of the number of metabolically active cells by using the commercially available WST-1 Cell-Proliferation Assay (Takara Inc.) in accordance with the proposals of the manufacturer.

[4] = tested on: PHA-activated human mononuclear cells (MNC); test: Proliferation of PHA-activated human MNC (WST-1 Cell-Proliferation Assay); settings: 72 h
Experimental: FIG. 7: The MNC were incubated for the time of 72 hours without (control), with mitogenic lectin phytohemagglutinine (PHA) or with PHA plus the inhibitors indicated. Subsequently, there was carried out a determination of the number of metabolically active cells by using the commercially available WST-1 Cell-Proliferation Assay (Takara Inc.) in accordance with the proposals of the manufacturer.
as §3, with “10:” for “8:”, “mononuclear cells (MNC)” for “KARPAS-299-cells”, “time” for “time period”, “in the presence of” for “without (control) and with”

[5] = tested on: human peripheric mononuclear cells (MNC); test: DNA synthesis of human peripheric mononuclear cells (3[H]-thymidine incorporation); settings: 72 h incubation
Experimental: as §1, with “The MNC” for “The T cells”
as §2, with “2:” for “1:”, “APN” for “aminopeptidase N”, “mononuclear cells (MNC).” for “T lymphocytes.”, “MNC” for “peripheric T cells”
as §2, with “4: Enhanced” for “1: Synergistic”, “prolyl oligopeptidase (Boc-Ala-Thia)” for “aminopeptidase N (actinonine)”, “mononuclear cells (MNC).” for “T lymphocytes.”, “MNC” for “peripheric T cells”
as §2, with “6:” for “1:”, “angiotensin-converting enzyme (captopril)” for “aminopeptidase N (actinonine)”, “mononuclear cells (MNC).” for “T lymphocytes.”, “MNC” for “peripheric T cells”

[6] = tested on: pokeweed-mitogene stimulated human MNC of the peripheral blood; test: DNA synthesis of pokeweed-mitogene stimulated human MNC (3[H]-thymidine incorporation); settings: simultaneous administration of DP IV inhibitor I49 and APN inhibitor bestatine; PWM 2 μg/ml; 72 h; Example 11, FIG. 11
Experimental: The MNC were incubated for 72 hours in the presence of pokeweed-mitogene and of said inhibitors, and the DNA synthesis was determined subsequently by a measurement of the ^3[H]-thymidine-incorporation, is described by Reinhold et al. (Reinhold D et al.: Inhibitors of dipeptidyl peptidase IV induce secretion of transforming growth factor β1 in PWM-stimulated PBMNC and T cells. Immunology 1997; 91; 354-360).
FIG. 11: Synergistic and dose-dependent effect of inhibitors of DP IV (I49) and of aminopeptidase N (bestatine) on the DNA synthesis of human PWM-stimulated MNC. Human peripheric MNC were incubated for three days with PWM (2 μg/ml) and the above-indicated concentration of inhibitors. Subsequently, ^3[H]-methyl thymidine was added to the culture medium, and the amount of ^3[H]-thymidine incorporated into the DNA was measured after further 6 hours.

[7] = tested on: IL-4 production by pokeweed-mitogene stimulated human mononuclear cells (MNC); test: IL-4 production by pokeweed-mitogene stimulated human MNC (IL-4 ELISA); settings: simultaneous administration of DP IV inhibitor I49 and APN inhibitor bestatine; PWM 2 μg/ml; 48 h; culture supernatants; Example 12, FIG. 12
Experimental: The MNC were incubated for 48 hours in the presence of pokeweed-mitogene and of said inhibitors, and the concentration of IL-4 was subsequently determined in the respective culture supernatants by means of commercially available IL-4 analysis kids (ELISA) as described by Reinhold et al. (Reinhold D et al.: Inhibitors of dipeptidyl peptidase IV induce secretion of transforming growth factor β1 in PWM-stimulated PBMNC and T cells. Immunology 1997; 91; 354-360).
FIG. 12: Synergistic and dose-dependent effect of inhibitors of DP IV (I49) and of aminopeptidase N (bestatine) on the IL-4-production by human, PWM-stimulated MNC. Human peripheric MNC were incubated for 48 hours with PWM (2 μg/ml) and with the above-indicated concentrations of the inhibitors. Subsequently, the concentration of IL-4 in the respective culture supernatants were measured by means of IL-4-ELISA.

[8] = simultaneous administration of DP IV inhibitor I49 and APN inhibitor actinonine, Example 1, FIG. 1
[9] = single and simultaneous administration of I49 and actinonine, PHA, Example 7, FIG. 7
[10] = simultaneous administration of DP IV inhibitor I49 and APN inhibitor actinonine, Example 2, FIG. 2
[11] = single and simultaneous administration of I49 and X-Pro-aminopeptidase (APP) inhibitor apstatine, Example 10, FIG. 10
[12] = simultaneous administration of DP IV inhibitor I49 and prolyl oligopeptidase inhibitor Boc-Ala thiazolidide, Example 3, FIG. 3
[13] = simultaneous administration of DP IV inhibitor I49 and prolyl oligopeptidase inhibitor Boc-Ala thiazolidide, Example 4, FIG. 4
[14] = simultaneous administration of DP IV inhibitor I49 and ACE inhibitor captopril, Example 5, FIG. 5
[15] = simultaneous administration of DP IV inhibitor I49 and ACE inhibitor captopril, Example 6, FIG. 6

Compound: CCCCC[C@H](CC(=O)NO)C(=O)N[C@H](C(=O)N1CCC[C@H]1CO)C(C)C [Actinonine]
- inhibition of DNA synthesis [1, 8]: inhibited, in a more than additive to superadditive manner
- inhibition of proliferation (number of metabolically active cells) (KARPAS-299 cells): Inhibition of the Proliferation
- inhibition of DNA synthesis [2]: inhibited, in a more than additive and, at lower concentrations, also in a superadditive manner
- inhibition of proliferation (number of metabolically active cells) [3]: Inhibition of the Proliferation
- inhibition of proliferation (number of metabolically active cells) [4, 9]: Inhibition of the Proliferation
- inhibition of DNA synthesis [5, 10]: inhibited, in a more than additive to superadditive manner

Compound: C[C@H](NC(=O)[C@@H]1CCCN1C(=O)[C@@H]1CCCN1C(=O)[C@@H](O)[C@H](N)Cc1ccccc1)C(N)=O [Apstatine]
- inhibition of proliferation (number of metabolically active cells) [4, 11]: Inhibition of the Proliferation

Compound: CC(C)C[C@H](NC(=O)[C@@H](O)[C@H](N)Cc1ccccc1)C(=O)O [Bestatine]
- inhibition of DNA synthesis [6]: inhibited, in a more than additive manner
- inhibition of IL-4 production [7]: inhibited, in a more than additive to superadditive manner

Compound: CC(NC(=O)OC(C)(C)C)C(=O)N1CCSC1 (stereo not shown) [Boc-Ala thiazolidide]
- inhibition of DNA synthesis [1, 12]: inhibited, in a more than additive to superadditive manner
- inhibition of DNA synthesis [5, 13]: inhibited, in an increased manner

Compound: C[C@H](CS)C(=O)N1CCC[C@H]1C(=O)O [Captopril]
- inhibition of DNA synthesis [1, 14]: inhibited, in a more than additive to superadditive manner
- inhibition of DNA synthesis [5, 15]: inhibited, in a more than additive to superadditive manner

Compound: N[C@@H](CCCCNC(=O)OCc1ccc([N+](=O)[O-])cc1)C(=O)N1CCSC1 [I49, Lys[Z(NO2)]-thiazolidide]
- inhibition of DNA synthesis [1, 14]: inhibited, in a more than additive to superadditive manner
- inhibition of DNA synthesis [1, 8]: inhibited, in a more than additive to superadditive manner
- inhibition of DNA synthesis [1, 12]: inhibited, in a more than additive to superadditive manner
- inhibition of DNA synthesis [6]: inhibited, in a more than additive manner
- inhibition of proliferation (number of metabolically active cells) (KARPAS-299 cells): Inhibition of the Proliferation
- inhibition of IL-4 production [7]: inhibited, in a more than additive to superadditive manner
- inhibition of DNA synthesis [2]: inhibited, in a more than additive and, at lower concentrations, also in a superadditive manner
- inhibition of proliferation (number of metabolically active cells) [3]: Inhibition of the Proliferation
- inhibition of proliferation (number of metabolically active cells) [4, 11]: Inhibition of the Proliferation
- inhibition of proliferation (number of metabolically active cells) [4, 9]: Inhibition of the Proliferation
- inhibition of DNA synthesis [5, 15]: inhibited, in a more than additive to superadditive manner
- inhibition of DNA synthesis [5, 10]: inhibited, in a more than additive to superadditive manner
- inhibition of DNA synthesis [5, 13]: inhibited, in an increased manner

Compound: Probestine
- inhibition of proliferation (number of metabolically active cells) (KARPAS-299 cells): Inhibition of the Proliferation
- inhibition of proliferation (number of metabolically active cells) [3]: Inhibition of the Proliferation

Reference: patent publication US20040132639A1, “Combined use of enzyme inhibitors and pharmaceutical preparations thereof for the treatment and a prophylaxis of arteriosclerosis, for the treatment and prevention of allergic reactions of type I according to the gell and coombs classification and for the treatment and prevention of dermatological …” (priority 2001, published 2004)
